Reference: US5272143A, “6-oxoazepinoindole compounds, and pharmaceutical compositions containing them” (Kali-Chemie Pharma GmbH, priority 1991, dated 1993)

Assays:
Mouse = test system: Mouse; parameters: species or system Male mice; settings: in vivo, po, 4320 min
Protocol: 1. Determination of the minimum toxic dose.
Male mice of 20-25 g weight are administered maximum doses of 300 mg/kg of the test substance p.o. The animals were carefully observed for 3 hours for symptoms of toxicity. Over a period of 72 hours after administration, all symptoms and cases of death are additionally recorded. Concomitant symptoms are likewise observed and recorded. If death or strong toxic symptoms are observed, further mice are administered increasingly lower doses until toxic symptoms no longer occur. The lowest dose which causes death or strong toxic symptoms is given in the following Table A as the minimum toxic dose. The example numbers given in Table A relate to the subsequent preparation examples.

5-HT1-like receptors = assay: Serotonin-agonistic contractions in segments of the isolated basilar artery of the pig (in vitro antimigraine activity); format: cell-based; settings: porcine basilar artery, in vitro; for pD2 = neg. log of Concentration Which Produces 50% of Maximum Contraction: concentrations in mol/l
Excerpt: 3. Investigation of Properties Indicating Antimigraine Activity of Test Substance in vitro. Migraine pains are associated with excessive dilation of the cranial vascular system. […] This property of the test substances can be used as a basis for predicting anti-migraine activity. The serotoninagonistic activity of the substances on 5-HT1 -like receptors can be determined in vitro in isolated organ strips from the basilar artery of a pig. […] Such a contraction is also produced by the test substances and is a good index of the antimigraine activity of the substances. The tests are carried out according to the method described by van Charldorp et al. (Naunyn-Schmiedeb. Arch. Pharmacol. supp. to volume 341, R89, 1990 and Eur. J. Pharmacol. 183, 1106-1107, 1990). Experimental description of the in vitro determination of the effect inducing serotonin-agonistic contractions in segments of the isolated basilar artery of the pig. For the experiment, helical segments of the basilar artery of pigs were used which were isolated from pig brains supplied by a slaughterhouse. Each strip was fixed in an organ bath consisting of 10 ml of a modified Tyrode solution such that the tissue was under a tension of 10 mN. […] The solution was modified by adding 10^-8 mol/l of indomethacin, 10^-7 mol/l of atropine and 10^-7 mol/l of propanolol and adjusted to pH=7.4. The bath was aerated with a mixture of 95% O2 and 5% CO2. After an equilibration phase of 1 hour a contraction of the tissue was produced twice, in each case by addition of serotonin at a concentration of 10^-5 mol/l and the preparation was subsequently washed out. The contraction effect was then measured with increasing serotonin concentration and a cumulative concentration effect curve for serotonin was drawn up. A cumulative concentration effect curve was drawn up for the test substance on the same preparation (after washing out again). In the following Table B, the maximum contraction caused by the test substances in relationship to the maximum contraction produced by serotonin, and the negative logarithm of that concentration of the test substance which produces 50% of the maximum contraction which can be produced by this test substance (=pD2), and the relative potency calculated as pD2 of the test substance relative to the pD2 of serotonin determined on the same piece of artery are given.

stomach motility = assay: Determination of effect on stomach motility in anaesthetised rats; format: in vivo, rats of the SIV 50 strain; settings: rat
Protocol: 2. Determination of effect on stomach motility in anaesthetised rats.
For the tests, groups of 5-6 fasting rats of the SIV 50 strain having a body weight of 220-290 g were used in each test which had been anaesthetised with a ketamine/xylazine mixture. The animals received an initial dose of 1 ml/kg of a solution of 50 mg/ml of ketamine and 10 mg/ml of xylazine administered i.p., and the anaesthetic level was maintained by a continuous intraperitoneal infusion of the same solution at an infusion rate of 1 ml/kg/h. The animals were tracheotomised and laparotomised. After applying a pylorus ligature, a stomach tube was inserted into the stomach and connected at the other end by means of a three-way tap to a calibrated pressure transducer (Statham Element P 23 ID). A corresponding tube was inserted rectally 8-9 cm into the colon and likewise connected in the same manner to a calibrated pressure transducer of the same type. The stomachs of the animals were then filled with 2 ml of water via the tube. After a stabilisation phase of 40 min, the pressure variations in the stomach and colon were measured over a test period of 2 hours and 20 minutes, and the amplitudes produced by the phasic gastric motility were recorded by means of a Watanabe multirecorder (MC 6621). The geometric mean values of the amplitudes during the first 20 min were determined for the individual animals and used as control amplitude values. After the first 20 min, the test substances were administered i.p. The maximum increase in amplitude (=mean value of the 20 minute period in which the highest increase in amplitude occurs) caused by the test substances was determined in % increase of the control amplitude values determined before administration of the test substances, and the mean value for the animal group is given in the following Table A. In addition, the maximum increase in the mean gastric tone caused by the test substances during the test period compared with the mean gastric tone existing before administration of the test substances was recorded. This increase in gastric tone is given in Table A in cm of H2 O (mean value of the animal group). In the colon, the test substances cause amplitude damping.

[1] = ip, 10 μmole/kg i.p., read-out: Maximum Amplitude Increase (increase in % of control amplitude)

Compound | Minimum Toxic Dose (Mouse) | Maximum Contraction Produced by Test Substance Relative to Maximum Contraction Produced by Serotonin = 1 (5-HT1-like receptors) | relative potency calculated as pD2 of the test substance relative to the pD2 of serotonin determined on the same piece of artery (5-HT1-like receptors) | pD2 = neg. log of Concentration Which Produces 50% of Maximum Contraction (5-HT1-like receptors) | change in vivo at 10 µmol/kg (stomach motility; [1]) | Gastric Tone Increase (stomach motility; 10 μmole/kg i.p.) | change in vivo at 100 µmol/kg (stomach motility; ip, 100 μmole/kg i.p., read-out: Maximum Amplitude Increase (increase in % of control amplitude)) | Gastric Tone Increase (stomach motility; 100 μmole/kg i.p.)
NCC1CNC(=O)c2cccc3[nH]cc1c23 (racemic) [Example 1, 3-Aminomethyl-3,4,5,6-tetrahydro-6-oxo-1H-azepino[5,4,3-cd]indole] | > 300 mg/kg | 0.8 | 0.132 | 6.5 | 449% | 7.4 cm H2O |  | 
CNCC1CNC(=O)c2cccc3[nH]cc1c23 (racemic) [Example 4, 3-Methylaminomethyl-3,4,5,6-tetrahydro-6-oxo-1H-azepino[5,4,3-cd]indole] | > 300 mg/kg | 0.6 | 0.208 | 6.8 |  |  | 532% | 9.0 cm H2O
Cn1cc2c3c(cccc31)C(=O)NCC2CN (stereo not drawn) [Example 9, 1-methyl-3-aminomethyl-3,4,5,6-tetrahydro-6-oxo-1H-azepino[5,4,3-cd]indole] | > 300 mg/kg | 0.5 | 0.124 | 6.4 | 334% | 5.5 cm H2O |  | 
